Test results as given in ChEMBL document CHEMBL1201862, “PubChem BioAssay data set” (2004).
The source made the active and inactive calls.

Key:
Coagulation factor XII = target: T1, Coagulation factor XII (Homo sapiens, UniProt P00748); test: Factor XIIa Dose Response Confirmation from Single Well HTS. [Related pubchem assays (depositor defined):AID701]; type: functional
T1 sequence (P00748 whole entry): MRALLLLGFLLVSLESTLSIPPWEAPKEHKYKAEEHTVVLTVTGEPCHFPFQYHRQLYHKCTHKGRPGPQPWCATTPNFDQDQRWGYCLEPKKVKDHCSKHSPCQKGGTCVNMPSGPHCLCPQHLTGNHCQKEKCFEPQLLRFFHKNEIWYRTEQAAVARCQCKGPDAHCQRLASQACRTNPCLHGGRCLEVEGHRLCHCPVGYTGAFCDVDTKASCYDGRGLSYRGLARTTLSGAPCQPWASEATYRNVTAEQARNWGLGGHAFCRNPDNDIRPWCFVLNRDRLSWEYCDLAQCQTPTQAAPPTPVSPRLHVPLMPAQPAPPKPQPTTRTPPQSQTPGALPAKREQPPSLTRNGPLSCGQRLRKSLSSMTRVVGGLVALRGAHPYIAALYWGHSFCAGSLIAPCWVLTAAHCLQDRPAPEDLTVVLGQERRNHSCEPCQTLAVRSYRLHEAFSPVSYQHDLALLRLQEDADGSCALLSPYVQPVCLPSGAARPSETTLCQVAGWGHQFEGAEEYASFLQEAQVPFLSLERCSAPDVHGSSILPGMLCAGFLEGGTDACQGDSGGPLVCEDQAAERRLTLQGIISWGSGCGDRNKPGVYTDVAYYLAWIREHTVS

[1] = target: T2, Tyrosine-protein phosphatase non-receptor type 7 (Homo sapiens, UniProt P35236); test: redox-dependent HePTP inhibition, mechanism study, biochemical, fluorescence (AID 2068); type: functional
T2 sequence (P35236 whole entry): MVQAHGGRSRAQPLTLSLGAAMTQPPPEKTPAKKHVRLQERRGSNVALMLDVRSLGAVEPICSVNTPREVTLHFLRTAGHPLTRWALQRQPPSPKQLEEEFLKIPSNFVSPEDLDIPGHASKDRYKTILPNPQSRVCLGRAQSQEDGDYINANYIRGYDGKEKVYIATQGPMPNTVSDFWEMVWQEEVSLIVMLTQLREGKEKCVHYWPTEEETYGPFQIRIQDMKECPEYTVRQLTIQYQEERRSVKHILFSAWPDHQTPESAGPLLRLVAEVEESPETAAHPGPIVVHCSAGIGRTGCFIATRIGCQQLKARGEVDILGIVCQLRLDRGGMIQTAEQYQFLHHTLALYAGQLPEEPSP

[2] = target: Alkaline phosphatase, placental type (Homo sapiens, UniProt P05187); test: PLAP enzyme inhibitors, confirmation, biochemical, luminescence (AID 1512); type: functional
Sequence of Alkaline phosphatase, placental type (P05187 whole entry): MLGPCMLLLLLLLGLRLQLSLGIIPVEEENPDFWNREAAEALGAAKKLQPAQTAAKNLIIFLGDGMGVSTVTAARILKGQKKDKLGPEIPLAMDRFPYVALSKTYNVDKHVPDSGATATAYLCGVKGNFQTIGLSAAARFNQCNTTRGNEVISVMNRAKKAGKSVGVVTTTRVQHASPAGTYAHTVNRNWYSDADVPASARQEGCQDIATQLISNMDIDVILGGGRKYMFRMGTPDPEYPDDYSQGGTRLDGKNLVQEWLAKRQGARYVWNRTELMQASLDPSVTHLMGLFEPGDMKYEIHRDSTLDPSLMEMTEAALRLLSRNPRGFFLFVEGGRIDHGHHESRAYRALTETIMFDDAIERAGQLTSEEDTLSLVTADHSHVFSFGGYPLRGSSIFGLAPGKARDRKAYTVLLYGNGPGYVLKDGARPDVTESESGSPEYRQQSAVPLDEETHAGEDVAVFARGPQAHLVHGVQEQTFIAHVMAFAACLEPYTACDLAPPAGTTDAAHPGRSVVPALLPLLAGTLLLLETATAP

[3] = target: T3, Alkaline phosphatase, tissue-nonspecific isozyme (Homo sapiens, UniProt P05186); test: human TNAP enzyme inhibitors, SAR follow-up, biochemical, luminescent, dose response (AID 1056)
T3 sequence (P05186 whole entry): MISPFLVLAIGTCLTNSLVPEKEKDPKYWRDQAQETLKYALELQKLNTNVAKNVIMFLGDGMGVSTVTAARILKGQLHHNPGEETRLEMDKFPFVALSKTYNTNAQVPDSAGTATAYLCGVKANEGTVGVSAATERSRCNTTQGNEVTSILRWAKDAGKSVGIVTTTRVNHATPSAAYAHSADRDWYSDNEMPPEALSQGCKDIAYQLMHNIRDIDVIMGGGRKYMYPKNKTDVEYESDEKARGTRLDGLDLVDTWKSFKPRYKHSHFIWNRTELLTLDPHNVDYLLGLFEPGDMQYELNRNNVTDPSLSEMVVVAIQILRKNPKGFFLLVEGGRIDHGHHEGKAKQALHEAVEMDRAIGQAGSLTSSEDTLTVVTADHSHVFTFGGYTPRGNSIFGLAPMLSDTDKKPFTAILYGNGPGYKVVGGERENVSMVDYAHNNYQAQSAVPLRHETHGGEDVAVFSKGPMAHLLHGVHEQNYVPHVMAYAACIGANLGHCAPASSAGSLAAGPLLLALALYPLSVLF

[4] = target: Glyceraldehyde-3-phosphate dehydrogenase (Homo sapiens, UniProt P04406)
Sequence of Glyceraldehyde-3-phosphate dehydrogenase (P04406 whole entry): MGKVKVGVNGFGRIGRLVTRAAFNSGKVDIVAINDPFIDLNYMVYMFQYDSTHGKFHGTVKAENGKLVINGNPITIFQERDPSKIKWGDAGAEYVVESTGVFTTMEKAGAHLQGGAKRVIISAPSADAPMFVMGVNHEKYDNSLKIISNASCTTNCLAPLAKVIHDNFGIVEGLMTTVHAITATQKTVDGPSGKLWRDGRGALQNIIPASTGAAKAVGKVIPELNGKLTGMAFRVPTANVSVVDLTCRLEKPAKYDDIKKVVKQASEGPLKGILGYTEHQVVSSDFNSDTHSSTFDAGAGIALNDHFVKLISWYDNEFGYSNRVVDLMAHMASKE

[5] = target: T4, Microphthalmia-associated transcription factor (Homo sapiens, UniProt O75030); test: MITF Measured in Cell-Based System Using Plate Reader - 2084-01_Inhibitor_DoseNoFile_CherryPick_Activity_Set2. [Related pubchem assays (depositor defined):AID488944]; type: functional
T4 sequence (O75030 whole entry): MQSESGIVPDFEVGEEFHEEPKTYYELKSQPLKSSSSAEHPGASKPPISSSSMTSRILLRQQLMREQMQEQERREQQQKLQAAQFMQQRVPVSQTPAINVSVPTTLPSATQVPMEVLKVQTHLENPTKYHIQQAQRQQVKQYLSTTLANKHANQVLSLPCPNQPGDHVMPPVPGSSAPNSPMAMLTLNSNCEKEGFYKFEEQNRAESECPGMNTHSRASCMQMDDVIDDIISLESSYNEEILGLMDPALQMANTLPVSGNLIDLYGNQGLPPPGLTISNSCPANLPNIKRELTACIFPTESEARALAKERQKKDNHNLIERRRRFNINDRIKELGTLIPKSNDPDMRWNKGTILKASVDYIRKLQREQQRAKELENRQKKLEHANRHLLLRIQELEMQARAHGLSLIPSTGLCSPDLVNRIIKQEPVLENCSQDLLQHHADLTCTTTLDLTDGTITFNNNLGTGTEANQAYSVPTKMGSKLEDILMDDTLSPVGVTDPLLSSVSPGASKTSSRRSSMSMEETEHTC

[6] = target: T4, Microphthalmia-associated transcription factor; test: TRPM1 promoter luciferase signal decrease, dose response, MITF inhibitor project, cell-based, SK-MEL-5, cherry-picked, set 4 (AID 493102); type: functional
[7] = target: T4, Microphthalmia-associated transcription factor; test: TRPM1 promoter luciferase signal decrease, dose response, MITF inhibitor project, cell-based, SK-MEL-5, cherry-picked, set 3 (AID 493073); type: functional
[8] = Vero E6 cell cytotoxicity, dose response, cytotoxicity control for non-replicating M. tuberculosis project, secondary assay (AID 492998); type: functional, VeroE6; settings: Vero C1008
HEK293 [9] = test: NOD1 signaling inhibitors, primary screen, cell-based, luminescence, uHTS (AID 1578); type: functional; settings: Homo sapiens
[10] = cytotoxicity toward NIH3T3 fibroblasts, dose response, counter-screen, cell-based, ATP luminescence, mouse fibroblasts (AID 2010); type: functional;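 further: cells exposed to compound for about 90 hours before reading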
[11] = THP-1 cell cytotoxicity, dose response, cytotoxicity control for non-replicating M. tuberculosis project (AID 489025); type: functional
BJ [12] = test: cells; type: functional, cell-based; settings: Homo sapiens
[13] = growth suppression of PTEN-null colon cells, dose response, cell-based, HCT116 PTEN knockout (AID 1047); type: functional;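 further: HCT116 colon tumor cells with PTEN knocked out; cells exposed to compound for 60 hours before readout; potency for loss of cell viability measured by luminescence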
[14] = target: Heat shock protein HSP 90-alpha (Homo sapiens, UniProt P07900); type: functional, organism-based
[15] = cytotoxicity toward DRD oncogenic fibroblasts, dose response, cell-based, non-viral oncogenic, luminescence (AID 1934); type: functional; settings: Homo sapiens
INS1 = test: beta cell apoptosis inhibitors, cytokine rescue, dose response, luminescence, retest (AID 449756); type: functional, cell-based; settings: Rattus norvegicus;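 further: cell death triggered by IL-1 beta plus TNF-alpha plus IFN-gamma mixture; protective hits raise ATP signal compared with cytokine alone wells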
[16] = inhibitors of intracellular T. cruzi replication, confirmation, NIH3T3 host cells, beta-gal luminescence (AID 2044); type: functional, cell-based;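 further: intracellular parasites grown in NIH/3T3 mouse fibroblasts as host cells; luminescent beta-galactosidase reporter signal from transgenic T. cruzi replicating inside host cells; inhibitors lower the luminescence signal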
[17] = target: Nucleotide-binding oligomerization domain-containing protein 2 (Homo sapiens, UniProt Q9HC29); test: NOD2 signaling inhibitors, cell-based, luminescence, uHTS, HEK293 (AID 1566); type: functional
Sequence of Nucleotide-binding oligomerization domain-containing protein 2 (Q9HC29 whole entry, the tested form may be a part): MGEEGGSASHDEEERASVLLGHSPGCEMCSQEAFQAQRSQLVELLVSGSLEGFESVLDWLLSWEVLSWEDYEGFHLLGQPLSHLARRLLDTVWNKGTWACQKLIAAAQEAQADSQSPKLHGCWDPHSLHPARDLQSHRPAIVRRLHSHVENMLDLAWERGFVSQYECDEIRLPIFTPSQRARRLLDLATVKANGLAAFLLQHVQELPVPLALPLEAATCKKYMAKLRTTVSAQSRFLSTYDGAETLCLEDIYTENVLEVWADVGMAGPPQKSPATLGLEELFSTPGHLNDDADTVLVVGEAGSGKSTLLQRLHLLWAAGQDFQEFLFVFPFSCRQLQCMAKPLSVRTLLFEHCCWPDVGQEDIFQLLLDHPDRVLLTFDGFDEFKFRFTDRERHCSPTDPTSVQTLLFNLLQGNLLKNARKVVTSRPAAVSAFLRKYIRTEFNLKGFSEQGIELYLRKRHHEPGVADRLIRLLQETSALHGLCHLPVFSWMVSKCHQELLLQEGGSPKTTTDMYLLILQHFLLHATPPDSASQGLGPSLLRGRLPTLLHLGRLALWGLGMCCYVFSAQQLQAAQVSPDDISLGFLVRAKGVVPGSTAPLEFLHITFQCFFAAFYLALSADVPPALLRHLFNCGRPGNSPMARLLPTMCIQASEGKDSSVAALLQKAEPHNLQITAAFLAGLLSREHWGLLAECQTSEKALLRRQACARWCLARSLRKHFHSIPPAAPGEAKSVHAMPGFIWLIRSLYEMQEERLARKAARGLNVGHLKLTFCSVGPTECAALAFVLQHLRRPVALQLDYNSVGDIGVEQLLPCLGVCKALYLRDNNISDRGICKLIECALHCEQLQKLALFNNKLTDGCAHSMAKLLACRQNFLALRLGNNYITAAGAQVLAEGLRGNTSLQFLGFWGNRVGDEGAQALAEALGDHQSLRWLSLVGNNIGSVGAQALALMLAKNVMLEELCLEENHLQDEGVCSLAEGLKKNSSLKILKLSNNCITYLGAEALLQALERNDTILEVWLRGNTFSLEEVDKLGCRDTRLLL

[18] = HepG2 cell cytotoxicity, dose response, cytotoxicity control for Shn3 inhibitor project, CellTiter-Glo, cherry-picked (AID 624134); type: functional, cell-based
[19] = control 3'UTR Renilla luciferase suppression, dose response, counter-screen for Shn3 inhibitor project, cell-based, Clone20-Shn3RL, cherry-picked (AID 624133); type: functional
[20] = target: FAD-linked sulfhydryl oxidase ALR (Homo sapiens, UniProt P55789); test: inhibitors of human ALR sulfhydryl oxidase, dose response, biochemical, H2O2 detection, luminescence, cherry-pick (AID 493248)
Sequence of FAD-linked sulfhydryl oxidase ALR (P55789 whole entry): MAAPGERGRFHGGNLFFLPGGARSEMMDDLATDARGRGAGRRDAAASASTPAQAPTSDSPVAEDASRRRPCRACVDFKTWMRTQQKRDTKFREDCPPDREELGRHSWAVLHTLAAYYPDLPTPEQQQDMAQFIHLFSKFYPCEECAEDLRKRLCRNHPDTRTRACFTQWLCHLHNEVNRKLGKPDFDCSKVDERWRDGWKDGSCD

HEK293 [21] = test: cells; type: functional, cell-based; settings: Homo sapiens
[22] = HepG2 cell cytotoxicity, dose response, cytotoxicity control for non-replicating M. tuberculosis project (AID 489018); type: functional; settings: Mycobacterium tuberculosis
BJ [23] = test: cytotoxicity toward BJ-TERT fibroblasts, dose response, cell-based, RAS-independent, luminescence (AID 1933); type: functional; settings: Homo sapiens
[24] = growth suppression of beta-catenin-knockout colon cells, dose response, cell-based, HCT116, human colon tumor (AID 1045); type: functional;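 further: HCT116 colon tumor cells with beta catenin knocked out; cells exposed to compound for 60 hours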
HEK293 [25] = test: NOD2 signaling inhibitors in MDP-stimulated cells, cell-based, uHTS, luminescence (AID 2001); type: functional; settings: Homo sapiens
BJ [26] = test: cytotoxicity toward BJ-TERT-LT-ST fibroblasts, dose response, cell-based, RAS-independent, luminescence (AID 1935); type: functional; settings: Homo sapiens;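 further: BJ fibroblasts immortalized with TERT plus LT and ST oncogenes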
[27] = Shn3 3'UTR reporter inhibitors, dose response, cell-based, Clone20 osteoblasts, firefly luciferase, cherry-picked (AID 624132); type: functional;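 further: firefly luciferase luminescence from reporter carrying the Shn3 3'UTR in osteoblasts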
HEK293 [28] = test: cells; type: functional, cell-based; settings: Homo sapiens; remark: listed apart in the source
cells = type: functional
HEK293 [29] = test: cells; type: functional, cell-based; settings: Homo sapiens; remark: listed apart in the source
Mu-type opioid receptor = Mu-type opioid receptor (Homo sapiens, UniProt P35372); test: SAR Analysis of Antagonists of the MOR Receptor using an Image-Based Assay - Set 3. [Related pubchem assays (depositor defined):AID1777, AID1785, AID1786, AID1966, AID2133, AID2136, AID2284, AID2285, AID2420]; type: functional
Sequence of Mu-type opioid receptor (P35372 whole entry): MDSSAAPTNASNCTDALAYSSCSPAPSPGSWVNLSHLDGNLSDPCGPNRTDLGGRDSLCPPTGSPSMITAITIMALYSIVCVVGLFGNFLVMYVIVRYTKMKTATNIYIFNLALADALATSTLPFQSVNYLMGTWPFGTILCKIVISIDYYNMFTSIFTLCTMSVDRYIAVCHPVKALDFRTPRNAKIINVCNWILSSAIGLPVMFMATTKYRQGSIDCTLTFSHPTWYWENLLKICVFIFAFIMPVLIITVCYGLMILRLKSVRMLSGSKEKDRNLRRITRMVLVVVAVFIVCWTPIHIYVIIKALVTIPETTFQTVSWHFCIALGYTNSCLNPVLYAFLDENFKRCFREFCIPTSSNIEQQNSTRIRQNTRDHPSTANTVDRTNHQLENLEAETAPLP

[30] = target: Delta-type opioid receptor (Homo sapiens, UniProt P41143); test: SAR Analysis of Antagonists of the DOR Receptor using an Image-Based Assay - Set 3. [Related pubchem assays (depositor defined):AID1777, AID1785]; type: functional;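 further: U2OS cells expressing DOR1 and beta-arrestin GFP stimulated with 100 nM SNC80; imaging of GFP-tagged beta-arrestin moving into spots after receptor activation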
[31] = target: T5, Kappa-type opioid receptor (Homo sapiens, UniProt P41145); test: SAR analysis of Antagonists of the Kappa Opioid Receptor (KOR) using an Image-Based Assay - Set 4. [Related pubchem assays (depositor defined):AID1777, AID1785]; type: functional
T5 sequence (P41145 whole entry): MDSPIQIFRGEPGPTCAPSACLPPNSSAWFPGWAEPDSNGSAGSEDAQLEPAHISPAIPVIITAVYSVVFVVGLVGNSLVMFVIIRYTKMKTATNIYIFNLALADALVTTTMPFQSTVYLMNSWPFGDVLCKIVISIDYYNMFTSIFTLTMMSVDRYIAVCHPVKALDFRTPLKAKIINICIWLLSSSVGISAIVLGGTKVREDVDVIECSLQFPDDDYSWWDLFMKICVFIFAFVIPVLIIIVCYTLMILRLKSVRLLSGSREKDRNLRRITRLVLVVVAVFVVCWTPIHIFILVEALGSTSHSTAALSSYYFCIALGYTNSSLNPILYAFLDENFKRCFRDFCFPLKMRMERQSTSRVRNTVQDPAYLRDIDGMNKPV

[32] = target: T5, Kappa-type opioid receptor; test: SAR analysis of small molecule antagonists of the kappa opioid receptor via a luminescent beta-arrestin assay - Set 3. [Related pubchem assays (depositor defined):AID1777, AID1778, AID1785, AID1786, AID1966, AID2133, AID2136, AID2285, AID2495]; type: functional
T-cell = test: inhibitors of CD8+ T cell–vesicle binding, dose response, mouse 2C CD8+ T cells, flow cytometry (AID 485284); type: functional
Hexokinase = Hexokinase (Trypanosoma brucei, UniProt Q38C41); test: Confirmation assay for inhibitors of Trypanosoma brucei hexokinase 1-Analogue-first series. [Related pubchem assays (depositor defined):AID1430, AID1632, AID2516, AID2560, AID2579, AID2600, AID449725, AID492951]; type: functional
Sequence of Hexokinase (Q38C41 whole entry): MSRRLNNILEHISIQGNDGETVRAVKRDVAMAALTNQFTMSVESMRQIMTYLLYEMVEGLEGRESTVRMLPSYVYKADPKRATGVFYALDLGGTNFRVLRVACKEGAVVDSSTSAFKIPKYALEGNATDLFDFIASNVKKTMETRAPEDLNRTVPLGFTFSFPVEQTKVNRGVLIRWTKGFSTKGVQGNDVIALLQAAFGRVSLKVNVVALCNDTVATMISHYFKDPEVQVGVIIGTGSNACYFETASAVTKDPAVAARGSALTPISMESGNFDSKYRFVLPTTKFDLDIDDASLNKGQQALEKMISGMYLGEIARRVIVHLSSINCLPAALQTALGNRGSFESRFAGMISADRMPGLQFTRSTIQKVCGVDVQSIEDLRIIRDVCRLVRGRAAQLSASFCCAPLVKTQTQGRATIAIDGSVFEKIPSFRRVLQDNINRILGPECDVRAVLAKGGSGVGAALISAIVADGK

Beta Lactamase = Beta Lactamase (Pseudomonas aeruginosa, UniProt Q932Y6); test: beta-lactamase reporter inhibitor potency, dose response, artefact control for TLR9-MyD88 binding inhibitor project, BLA reporter cells, FRET fluorescence (AID 588341); type: cell-based;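 further: cell based assay in CHO-K1 cells stably expressing beta-lactamase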
Sequence of Beta Lactamase (Q932Y6 whole entry, the tested form may be a part): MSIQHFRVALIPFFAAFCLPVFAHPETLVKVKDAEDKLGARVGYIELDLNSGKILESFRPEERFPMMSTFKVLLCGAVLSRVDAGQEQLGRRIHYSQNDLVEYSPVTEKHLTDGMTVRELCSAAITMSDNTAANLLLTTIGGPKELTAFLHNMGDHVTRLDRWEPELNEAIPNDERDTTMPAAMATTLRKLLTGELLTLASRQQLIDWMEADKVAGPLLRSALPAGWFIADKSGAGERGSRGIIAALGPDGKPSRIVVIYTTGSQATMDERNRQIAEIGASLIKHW

CHO = test: cytotoxicity in TLR9-MyD88 CHO cells, dose response, cytotoxicity control for TLR9-MyD88 binding inhibitor project, cell-based, luminescence (AID 588339); type: functional, hamster; settings: Cricetulus griseus;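 further: CHO cells stably coexpressing TLR9 and MyD88 fusions from primary screen; compound exposure lasted 48 hours before viability readout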
[33] = target: Glucose-6-phosphate 1-dehydrogenase (Homo sapiens, UniProt P11413); test: human G6PD enzyme inhibitors, dose response, selectivity assay for P. falciparum G6PD inhibitor project, biochemical, fluorescence (AID 504792); type: functional
Sequence of Glucose-6-phosphate 1-dehydrogenase (P11413 whole entry): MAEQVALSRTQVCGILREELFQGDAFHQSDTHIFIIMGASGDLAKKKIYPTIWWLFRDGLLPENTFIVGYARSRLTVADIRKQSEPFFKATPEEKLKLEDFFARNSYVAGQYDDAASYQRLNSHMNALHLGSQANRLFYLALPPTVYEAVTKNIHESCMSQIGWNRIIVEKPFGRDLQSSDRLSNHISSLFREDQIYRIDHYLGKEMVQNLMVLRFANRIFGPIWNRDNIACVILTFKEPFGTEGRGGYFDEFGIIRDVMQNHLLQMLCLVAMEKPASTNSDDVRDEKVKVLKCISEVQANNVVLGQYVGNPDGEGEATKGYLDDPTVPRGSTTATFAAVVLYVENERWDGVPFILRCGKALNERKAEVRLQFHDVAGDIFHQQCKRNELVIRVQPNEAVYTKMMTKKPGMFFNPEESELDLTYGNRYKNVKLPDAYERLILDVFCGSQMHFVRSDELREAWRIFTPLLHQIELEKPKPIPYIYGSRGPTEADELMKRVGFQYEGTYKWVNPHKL

X-box-binding protein 1 = X-box-binding protein 1 (Homo sapiens, UniProt P17861); type: functional, Cricetulus griseus;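 further: confirmatory dose-response counter-screen serving a CHOP assay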
Sequence of X-box-binding protein 1 (P17861 whole entry): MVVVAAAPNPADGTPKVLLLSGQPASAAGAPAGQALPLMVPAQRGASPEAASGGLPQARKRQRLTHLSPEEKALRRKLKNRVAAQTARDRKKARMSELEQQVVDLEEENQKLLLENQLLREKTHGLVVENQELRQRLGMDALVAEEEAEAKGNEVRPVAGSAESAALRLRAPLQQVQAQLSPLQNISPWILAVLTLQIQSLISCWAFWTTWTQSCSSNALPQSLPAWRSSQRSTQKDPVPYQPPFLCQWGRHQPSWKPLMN

[34] = target: DNA damage-inducible transcript 3 protein (Mus musculus, UniProt P35639); type: functional, Cricetulus griseus
Sequence of DNA damage-inducible transcript 3 protein (P35639 whole entry): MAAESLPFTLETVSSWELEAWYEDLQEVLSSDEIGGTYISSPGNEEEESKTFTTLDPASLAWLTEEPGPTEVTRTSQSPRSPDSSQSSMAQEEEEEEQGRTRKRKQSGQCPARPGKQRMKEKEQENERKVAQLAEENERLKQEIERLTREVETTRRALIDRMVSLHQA

O=C(C1CCC1)N(CCc1ccccc1)Cc1nc(O)c2ccccc2n1
inactive: IC50 (Coagulation factor XII) > 50 µM

CC1CCN(C(=O)Nc2ccc3nc(-c4ccco4)c(-c4ccco4)nc3c2)CC1
active: IC50 [1] 0.84 µM

CC(C)Cc1nc(N)nn1-c1ccccc1
inactive: IC50 [2] > 100 µM | IC50 [3] > 100 µM
> 100 µM (not active): IC50 [4]

CN(C)Cc1c(O)ccc2c1O/C(=C\C=C\c1ccccc1)C2=O
inactive: AC50 [5] > 350 µM | AC50 [6] > 350 µM | AC50 [7] > 350 µM

O=S1(=O)C=C(Sc2nnc(-c3ccccc3)o2)c2ccccc21
inconclusive: EC50 (BJ [12]) 7.16 µM | EC50 (BJ [26]) 2.8 µM
active: CC50 [8] 2.87 µM | EC50 [10] 2.33 µM | CC50 [11] 6.02 µM | EC50 [13] 2.38 µM | AC50 [14] 2.9 µM | EC50 [15] 4.19 µM | AC50 (INS1) 7.3 µM | EC50 [16] 0.941 µM | AC50 [18] 8.89 µM | AC50 [19] 4 µM | AC50 [20] 0.281 µM | CC50 [22] 18.5 µM | EC50 (BJ [23]) 1.48 µM | EC50 [24] 2.8 µM | AC50 [27] 1.7 µM | IC50 (cells) 1.13 µM | IC50 (HEK293 [29]) 5.52 µM
inactive: EC50 (HEK293 [9]) > 20 µM | EC50 [17] > 20 µM | IC50 (HEK293 [21]) > 20 µM | IC50 (HEK293 [25]) 6.48 µM | IC50 (HEK293 [28]) > 20 µM

Cc1ccc(N2CCN(CCCNC(=O)Cn3c(=O)c4cccn4c4c(C)ccnc43)CC2)cc1
inactive: IC50 (Mu-type opioid receptor) > 32 µM | IC50 [30] > 32 µM
active: IC50 [31] 2.28 µM | IC50 [32] 0.875 µM

CC(=O)c1ccc(-c2csc(N3CCC(C(N)=O)CC3)n2)cc1
active: EC50 (T-cell) 2.47 µM

O=c1c2cc(C(F)(F)F)ccc2sn1-c1ccccc1
active: IC50 (CHO) 9.07 µM | IC50 [33] 18.3 µM
inactive: IC50 (Hexokinase) > 25 µM | IC50 (Beta Lactamase) > 49.8 µM

O=C(CSC1c2ccccc2-c2ccccc21)N/N=C/c1ccccc1
10 µM: Absolute IC50 (XBP1) (X-box-binding protein 1) | Absolute IC50 (CHOP) [34]
